Consider 2 compounds from patent US7692030B2, “Conjugates of artemisinin-related endoperoxides and hydrazone derivatives for the treatment of cancer” (University of Washington, priority 2006, dated 2010).

Format in all cases: cell-based
Assay [1] deals with DAOY medulloblastoma cells. The assay can be described thus: DAOY medulloblastoma cells, MTT assay and light microscopy. How it is done: The compound ART-Phe-Sal was tested on DAOY medulloblastoma cells using the MTT assay. DAOY Medulloblastoma cells (5,000 cells/200 μL) was seeded on a 96 well plate and incubated for 24 h at 37° C. Cell culture medium was removed after 24 h and 150 μL of medium with treatment was added. Each experimental treatment had holo-Tf (20 μg/well). Treatment assay was viewed under light microscope after 24 h.
Treatment medium was removed after 48 h, and 100 μL of cell medium was added. MTT Reagent (10 μL, 12 mM) was added to each well. This solution was incubated at 37° C. for 4 h. Isopropanol (100 μL) was added to each well to lyse the cells, which were then incubated at 4° C. for 30 m. After incubation each well was plunged (3×200 μL) to ensure the cells were lysed. The incubated medium with MTT reagent was then centrifuged at 13,000 RPM in an eppendorph centrifuge for 3 minutes at room temperature. 100 μL of supernatant was read in a plate reader at λ=570 nm. FIG. 13 compares the effect of dihydroartemisinin (DHA) and ART-Phe-Sal on DAOY medulloblastoma cell line. The concentration of holo-Tf was 1.7 μM.
(In general: Tetrazolium assays rely on reduction of a dye to a coloured formazan, in cell work by metabolically active cells.)

The subject of assay [2] is Molt-4 human leukemia cells. In words: Cell count of Molt-4 human leukemia cells over time. The following applies: FIG. 11; [ART-Phe-Sal]=10 mM, [DHA]=10 μM, [ART-Tf]=12 μM; cells counted at different times. The protocol: Molt-4-lymphoblastoid cells were purchased from the American Type Culture Collection (Rockville, Md.). They are acute lympoblastic leukemia cells from human peripheral blood. Cultures were maintained in RPMI-1640 (Gibco, Long Island, N.Y.) supplemented with 10% fetal bovine serum (Hyclone, New Haven, Conn.). Cells were cultured at 37° C. in 5% CO2/95% air and 100% humidity, and were split 1:2 at a concentration of approximately 1×10^6/mL. Approximate cell numbers before experiment were between 150×10^3 to 300×10^3 per mL.
FIG. 11 compares the effects of ART-Phe-Sal, DHA, and artemisinin-tagged holotransferrin (ART-Tf) on Molt-4 human leukemia cell.

In a further assay the test system is DU-145. In words: NCI DTP human tumor cell line screen (SRB). Particulars: Prostate Cancer, 10 μM, 48 h. In outline:
(§1)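 Cells plated and preincubated 24 h at 37 °C, 5% CO2, then exposed to compound at 10 μM final for 48 h. Adherent cells fixed with cold TCA, stained with SRB, absorbance read at 515 nm. Percent growth derived from time-zero (Tz), control (C) and treated (Ti) readings.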

The next assay relates to RXF 393. The assay can be described thus: NCI DTP human tumor cell line screen (SRB). Particulars: Renal Cancer, 10 μM, 48 h. In outline:
as §1

The test system of a further assay is IGROV1. The assay can be described thus: NCI DTP human tumor cell line screen (SRB). Particulars: Ovarian Cancer, 10 μM, 48 h. In outline:
as §1

In another assay the test system is A549/ATCC. In words: NCI DTP human tumor cell line screen (SRB). The following applies: Non-Small Cell Lung Cancer, 10 μM, 48 h. In outline:
as §1

“Also recorded” adds a separate entry of the source.

Regarding `CC1CCC2C(C)C(OCc3ccc(C(=O)NN=Cc4ccccc4O)cc3)OC3OC4(C)CCC1C32OO4` (stereo not shown) [ART-Phe-Sal, N′-(2-hydroxybenzylidene)-4-(dihydroxyartemisinin-methyl)-phenyl carbohydrazide], the “activity against DAOY medulloblastoma cells” value in assay [1] (FIG. 13, MTT assay, 48 h treatment, holo-Tf 1.7 μM) is reported as “active against DAOY medulloblastoma cells”. In assay [1] (after 24 h treatment, each treatment had holo-Tf (20 μg/well)), the “cell shrinkage under light microscope” value is reported as “Moderate cell shrinkage”. In addition, the “effect on Molt-4 human leukemia cells (cell count, words)” value in assay [2] is “can effectively kill human leukemia cells; also recorded: more potent than either dihydroartemisinin (DHA) or artemisinin-tagged holotransferrin (ART-Tf)”.

Regarding `Cc1ncc(CO)c(C=NNC(=O)c2ccc(COC3OC4OC5(C)CCC6C(C)CCC(C3C)C46OO5)cc2)c1O` (stereo not shown) [ART-Phe-Pyridoxal, N′-(5-hydroxy-3-hydroxymethyl-2-methyl-4-pyridylidene)-4-(dihydroxyartemisinin-methyl)-phenyl carbohydrazide], the “Growth Percent” value with DU-145 is on record as −9.65%; in the assay with RXF 393, 35.07%; in the assay on IGROV1 it was 1.58%; in the assay with A549/ATCC it was 26.36%.
